Consider two compounds from patent US7537786B2, “Complex of drug-carbon nanohorn and a process for producing the complex” (NEC Corporation, priority 2005, dated 2009).

The test system of assay [1] is NCI-H460 cells. The assay is described as follows: WST-1 assay for cancer cell viability. Type of assay: cell-based, human. The settings on record: WST-1, incubation 46 and 72 hours. The protocol:
The effect of CDDP released from CNHox was examined using the WST-1 assay. The CDDP-CNHox powder was added to human derived lung cancer cells NCI-H460. CDDP is a drug which has a effect on human lung cancer. These cells were maintained in RPMI-1640 medium containing 5% FBS at 37° C. in a humidified atmosphere with CO2 and air. For these cells, CDDP-CNHox or CDDP or CNHox was added respectively, and after the addition, each sample was examined. NCI-H460 cells were seeded at 4,000 cells/well and were cultured for 43 hours. Meanwhile, the cells were cultured for 67 hours when seeded at 2,500 cells/well (no addition of CDDP-CNHox or CDDP). And then it was confirmed that the NCI-H460 cells were extinct by drug addition. The amount of the extinct NCI-H460 cells was estimated by observing the decrease in the emission intensity to indicate the absorbency of formazan (with blue dye) showing the living of cells. And also, the NCI-H460 cells were directly observed using the optical microscope.

Assay [2] relates to MC3T3-E1 cells. Description: ALP (alkaline phosphatase) activity assay. Type of assay: cell-based, mouse. The settings on record: MC3T3-E1, 10 days, differentiation-inducing medium with rhBMP-4. The protocol: Mouse osteoblastic cell (MC3T3-E1) lines were generously provided by Dr. Imamura (Cancer Institute, Japanese Foundation For Cancer Research). MC3T3-E1 cells were maintained in α-minimum essential medium (α-MEM) supplied with 5% FBS, […] in continuous culture at 37° C. in a humidified atmosphere of 5% CO2 and 95% air, and these cells were passaged every 3-4 days.
MC3T3-E1 cells were plated at 26,000 cells/cm^2 in 24 well plates and were grown until confluent. Next, the culture medium was exchanged with differentiation-inducing medium which consisted of α-MEM, 5% FBS, 100 U/ml penicillin, 100 μg/ml streptomycin, 50 μM ascorbic acid, 10 mM β-glycerophosphate and 20 ng/ml rhBMP-4. […]
For ALP activity assay, the medium was removed, and the cells were washed 3 times with TBS (20 mM Tris pH7.4, 150 mM NaCl), then harvested into 250 μl of TBS (contaning 0.2% Triton X-100) by scraping them on ice, and sonicated on ice for 5 min. […] The supernatant was mixed with p-nitro phosphate according to the manufacture's protocol, and the amount of p-nitrophenol released in 10 min was assessed by spectrophotometry (405 nm) with model 550 microplate-reader (Bio-Rad). Protein concentration of supernatant was assessed with protein quantitative assay kit (DC Protein Assay Kit) by the Lowry method. […]

`[NH2][Pt]([NH2])([Cl])[Cl]` [CDDP, cisplatin]: the “viability rate of NCI-H460 cells” value in assay [1] was “decreased dose-dependently”.

Consider `C[C@@H]1C[C@H]2[C@@H]3CCC4=CC(=O)C=C[C@]4(C)[C@@]3(F)[C@@H](O)C[C@]2(C)[C@@]1(O)C(=O)CO` [DEX, Dexamethasone], for which the “concentration at which ALP activity was increased” value in assay [2] is “no less than 0.05 μM”.
